Marks after values point to notes of the source that are not given here. Each block holds one molecule with its values, some of them ahead of it.
Tests used:
[1] = Phase I crossover DDI study: dabigatran etexilate; format: in vivo, human
[2] = Endogenous biomarkers NMN; format: in vivo, human; settings: for Tmax: median (range)
[3] = Phase I crossover DDI study: metformin; settings: metformin 500 mg alone; median (range)
clinical = settings: both, human, plasma, oral, 500 mg
[4] = cited from earlier work
[5] = Phase I crossover DDI study: rosuvastatin; format: in vivo, human
[6] = Safety across the three phase I pharmacokinetic studies; format: in vivo, human
P‐gp = assay: Anticipated effect of abrocitinib on digoxin, not formally evaluated; settings: assuming complete P‐gp inhibition
[7] = Static perpetrator DDI risk assessment; settings: for Theoretical gut concentration (Igut): 200 mg/250 mL
[8] = both, human, plasma, oral, 75 mg
[9] = dabigatran etexilate 75 mg + abrocitinib 200 mg vs alone
[10] = dabigatran etexilate 75 mg ± abrocitinib 200 mg single dose
[11] = rosuvastatin 10 mg ± abrocitinib 200 mg QD

Compound: CCCS(=O)(=O)N[C@H]1C[C@@H](N(C)c2ncnc3[nH]ccc23)C1 [abrocitinib, Abrocitinib]
- serious or severe adverse events ([6]; all three pharmacokinetic studies, abrocitinib 200 mg with probe drugs): No serious or severe adverse events
- tolerability ([6]; co‐administered with a single oral dose of dabigatran etexilate, rosuvastatin, or metformin, healthy volunteers): well‐tolerated
- anticipated maximum increase in digoxin AUC (P‐gp): ≤ 30%
- absorption rate constant (ka) [7]: 0.067 min⁻¹
- fraction absorbed (fafg) [7]: 0.91
- Theoretical gut concentration (Igut) [7]: 0.8 mg/mL
- Theoretical gut concentration (Igut) ([7]; MW 323.4): 2.47 mM
- 0.1 × molar dose/250 mL ([7]; cutoff for intestinal transporters, 200 mg dose): 247 µM
- 50 × Cmax,u ([7]; cutoff for systemic transporters, unbound steady-state Cmax): 65 µM
- Theoretical liver inlet concentration (Iin,max,u) ([7]; fu × (Cmax + ((fafg × ka × Dose/Qh)/B/P))): 9.1 µM

Compound: C[C@H]1O[C@@H](O[C@H]2[C@@H](O)C[C@H](O[C@H]3[C@@H](O)C[C@H](O[C@H]4CC[C@@]5(C)[C@H](CC[C@@H]6[C@@H]5C[C@@H](O)[C@]5(C)[C@@H](C7=CC(=O)OC7)CC[C@]65O)C4)O[C@@H]3C)O[C@@H]2C)C[C@H](O)[C@@H]1O [digoxin]
- absolute bioavailability [4]: 75–78%

Compound: CCCN(CCC)S(=O)(=O)c1ccc(C(=O)O)cc1 [probenecid]
- decrease in CLr of rosuvastatin or furosemide in the presence of probenecid ([4]; OAT3 index inhibitor, approximate five‐fold): ~80%

Compound: C=C[C@H]1C[N@@]2CC[C@H]1C[C@@H]2[C@@H](O)c1ccnc2ccc(OC)cc12 [quinidine]
- increase of dabigatran exposures ([4]; P‐gp interaction, dabigatran labeling): 50–60%

Further lines, with some results ahead:

- increase of plasma exposure on co‐administration with abrocitinib ([1]; abstract statement): ~ 50%
- Cmax [1, 8]: 0.0302 µg/mL
- half-life [1, 8]: 8.93 ± 2.28 h
- increase of AUCinf on co‐administration with abrocitinib [1, 9]: 53%
- increase of Cmax on co‐administration with abrocitinib [1, 9]: 40%
- AUCinf ratio of abrocitinib + substrate vs. substrate alone AGm (90% CI) [1, 10]: 1.53 (1.09–2.15)
- Cmax ratio of abrocitinib + substrate vs. substrate alone AGm (90% CI) [1, 10]: 1.40 (0.92–2.13)
Compound: [H]/N=C(/N)c1ccc(NCc2nc3cc(C(=O)N(CCC(=O)O)c4ccccn4)ccc3n2C)cc1 [Dabigatran, dabigatran]

- AUC24 ratio of abrocitinib + metformin vs. metformin alone AGm (90% CI) ([2]; IBC): 0.95 (0.85–1.05) ^c
- Cmax ratio of abrocitinib + metformin vs. metformin alone AGm (90% CI) ([2]; IBC): 0.95 (0.85–1.06) ^c
- AUC24 ([2]; IBC in plasma, metformin 500 mg alone, geometric mean (geometric %CV), N = 12): 1187 (56) ng•hour/mL
- Cmax ([2]; IBC, abrocitinib 200 mg + metformin 500 mg, geometric mean (geometric %CV)): 56.6 (55) ng/mL
- Tmax ([2]; IBC, abrocitinib 200 mg + metformin 500 mg): 14.0 (0.00–23.8) hour
- effect of abrocitinib co‐administration with metformin on AUC24 or Cmax ([2]; IBC, compared with metformin alone): did not alter
- Cmax ([2]; IBC, metformin 500 mg alone, geometric mean (geometric %CV)): 59.7 (56) ng/mL
- Tmax ([2]; IBC, metformin 500 mg alone): 16.0 (0.00–23.8) hour
Compound: CC(C)C(=O)O[C@H](CC(=O)[O-])C[N+](C)(C)C [IBC, isobutyryl‐L‐carnitine]

- Tmax [3]: 4.00 (1.00–4.00) hour
- AUC(0-inf) (clinical): 5.2 µg·h/mL
- Cmax (clinical): 0.721 µg/mL
Compound: CN(C)C(=N)N=C(N)N [Metformin, metformin]

- plasma exposure and CLr on co‐administration with abrocitinib ([5]; 90% CIs within acceptance range of 80–125%): unaffected
- AUC(0-inf) ([5]; both, human, plasma, oral, 10 mg): 0.0576 µg·h/mL
- CL renal ([5]; both, human, urine and plasma, oral, 10 mg): 243 mL/min
- Cmax ([5]; rosuvastatin 10 mg alone, geometric mean (geometric %CV)): 5.38 (53) ng/mL
- AUCinf ratio of abrocitinib + substrate vs. substrate alone AGm (90% CI) [5, 11]: 1.02 (0.93–1.12) ^c
- CLr ratio of abrocitinib + substrate vs. substrate alone AGm (90% CI) [5, 11]: 0.91 (0.83–1.01) ^c
- Cmax ratio of abrocitinib + substrate vs. substrate alone AGm (90% CI) [5, 11]: 0.99 (0.86–1.14) ^c
Compound: CC(C)c1nc(N(C)S(C)(=O)=O)nc(-c2ccc(F)cc2)c1/C=C/[C@@H](O)C[C@@H](O)CC(=O)O [Rosuvastatin, rosuvastatin]
- increase of rosuvastatin AUC with ABCG2 421A/A vs. wild‐type ([4]; ABCG2 (BCRP) polymorphism): ~ 2 fold
- parent drug recovered in urine ([4]; after oral dosing): 10%

From article PMC9540496 (Clinical Pharmacology and Therapeutics, 2022)
